Reference: patent US20140050778A1, “NUCLEIC ACID BINDING COMPOUNDS, METHODS OF MAKING, AND USE THEREOF” (UNIVERSITY OF ROCHESTER, priority 2010, published 2014)

Assays:
yeast tRNA = assay: Fluorescence titration control; type: binding; details: yeast tRNA titrated into a mixture of compounds 4 and 5
Protocol: The benzo[g]quinoline moiety is fluorescent, with excitation and emission maxima at 362 nm and 439 nm respectively in methanol. Fluorescence titration binding measurements were performed on a Cary Eclipse fluorescence spectrophotometer using a 10 mm path-length semimicro quartz fluorescence cell with 400 μL sample holding capacity. Absorbance measurements were carried out on a UV-Visible spectrophotometer (Shimadzu, UV-1601PC) using a 1 mL (1 cm path-length) quartz cell. Spectroscopic grade anhydrous methanol used in the measurement of relative quantum yield of the 2-ethyl benzo[g]quinoline carboxylic acid was purchased from Alfa Aesar and was used without further purification. For these measurements, known procedures were used (Lee and Grissom, “Design, Synthesis, and Characterization of Fluorescent Cobalamin Analogues with High Quantum Efficiencies,” Org. Lett. 11:2499-2502 (2009); Joseph R. Lakowicz, Principles of Fluorescence Spectroscopy, 2nd edition (Kluwer Academic/Plenum Publishers, 1999), which are hereby incorporated by reference in their entirety). Briefly, RNA (10 μM stock) in HBS-N buffer was titrated into a solution of 1 μM compound in HBS-N. After each addition of RNA, ten minutes were allowed for equilibration before recording the change in fluorescence at 468.5 nm. […]
Selected equilibrium affinities for (CUG)10 were confirmed by fluorescence titration. […]

human fibroblasts = assay: Cell permeability by fluorescence microscopy; type: cell-based; details: intrinsic fluorescence, 4 and 5 incubated as a mixture
Protocol: For cell permeability studies, human fibroblasts or mouse myoblasts grown to 80% confluence were exposed to compounds for 12 hours in a 96 well tissue culture plate. After removal of the culture media (DMEM, with 10% FBS, 1% pen-strep (GIBCO)) the cells were washed twice with PBS to remove excess compounds. Cells were then imaged while in buffer under a fluorescence microscope (Olympus IX70) in the 96-well plate using a 460 nm emission filter.
SPR and fluorescence titration experiments, performed using the protocol described in Examples 3 and 4 above, except using as the target a highly conserved RNA sequence responsible for regulating the production of the Gag-Pol polyprotein via a −1 ribosomal frameshift, which occurs along a “slippery sequence” in gag-pol mRNA (SEQ ID NO: 7). This “frameshift stimulatory sequence” (or “HIV-1 FSS”) consists of an upper stemloop and a lower stem, separated by a purine bulge in the most common types of HIV (FIG. 19). For the fluorescent titration experiments, the upper stemloop of SEQ ID NO: 7 was employed. Cell uptake and toxicity studies were carried out using human fibroblasts according to Example 5 above.

mouse myoblasts = assay: MTT toxicity assay; type: cell-based; details: individually
Protocol: For toxicity studies, mouse myoblasts or human fibroblasts were plated in a 96-well tissue culture plate in DMEM (10% fetal bovine serum, 100 units/ml penicillin, […]) and allowed to grow to approximately 80% confluence at 37° C. under CO2. Varying compound concentrations (up to 1 mM) were incubated with cells (48 hours, 37° C.). Media was then removed, and 3-(4,5-dimethylthiazol-2-yl)-2,5-diphenyltetrazolium bromide (“MTT”) in media was added to each well and incubated at 37° C. for 4 h. After removal of the MTT media, isopropanol (100 pp was added, and absorbance was measured at 600 nm on a Modulus microplate reader (Turner Biosystems).

| SMILES | binding of yeast tRNA (yeast tRNA) | cell membrane penetration / localization (human fibroblasts) | toxicity (MTT) (mouse myoblasts) |
| --- | --- | --- | --- |
| CCc1nc2cc3ccccc3cc2cc1C(=O)N1CCC[C@H]1C(=O)N[C@@H](C/C=C/C[C@H](NC(=O)[C@@H]1CCCN1C(=O)c1cc2cc3ccccc3cc2nc1CC)C(=O)N[C@@H](CCCCN)C(=O)NCCCN)C(=O)N[C@@H](CCCCN)C(=O)NCCCN [Compound 5] | No binding | Localization is shown, especially in the nucleus of cells | increasing toxicity was observed in mouse myoblasts above 100 μM |
| CCc1nc2cc3ccccc3cc2cc1C(=O)N1CCC[C@H]1C(=O)N[C@@H](C/C=C\C[C@H](NC(=O)[C@@H]1CCCN1C(=O)c1cc2cc3ccccc3cc2nc1CC)C(=O)N[C@@H](CCCCN)C(=O)NCCCN)C(=O)N[C@@H](CCCCN)C(=O)NCCCN [Compound 4] | No binding | Localization is shown, especially in the nucleus of cells | increasing toxicity was observed in mouse myoblasts above 100 μM |
